Source: US5672715A, “Herbicidal substituted 3-aryl-pyrazoles” (Monsanto Company, priority 1995, dated 1997)
Read-outs that look alike come from different tables or passages of the source.

Columns and labels:
Type in all cases: in vivo
[1] = test system: Barnyardgrass; assay: post-emergence herbicide test; conditions: Echinochloa crus-galli, post-emergence, read-out: % plant inhibition
Outline: (§1)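 Activity is given as percent inhibition of each species following foliar application. Pots were sprayed individually in a chamber once plants reached two to three weeks.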

[2] = test system: Blackgrass; assay: post-emergence herbicide test; conditions: Alopecurus myosuroides, post-emergence, read-out: % plant inhibition; for inhibition at 7.95803 g/ha: 0.0071 lb/A; for inhibition at 40.0143 g/ha: 0.0357 lb/A; for inhibition at 200.072 g/ha: 0.1785 lb/A; for inhibition at 1000.92 g/ha: 0.893 lb/A
Outline: as §1

[3] = test system: Soybean; assay: post-emergence herbicide test; conditions: Glycine max, post-emergence, read-out: % plant inhibition
Outline: as §1

[4] = test system: Velvetleaf; assay: post-emergence herbicide test; conditions: Abutilon theophrasti, post-emergence, read-out: % plant inhibition
Outline: as §1

[5] = test system: Corn; assay: post-emergence herbicide test; conditions: Zea mays, post-emergence, read-out: % plant inhibition
Outline: as §1

[6] = test system: Yellow Foxtail; assay: post-emergence herbicide test; conditions: Setaria, read-out: % plant inhibition
Outline: as §1

[7] = test system: Wheat; assay: post-emergence herbicide test; conditions: Triticum aestivum, post-emergence, read-out: % plant inhibition
Outline: as §1

[8] = test system: Barnyardgrass; assay: pre-emergence herbicide test; conditions: Echinochloa crus-galli, pre-emergence, read-out: % plant inhibition
Outline: (§2)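 Greenhouse pan assay in which seeds lie under a treated topsoil cover; carrier was acetone or water. Inhibition (%) was recorded about 14 days post-treatment.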

[9] = test system: Yellow Nutsedge; assay: pre-emergence herbicide test; conditions: Cyperus, read-out: % plant inhibition
Outline: as §2

[10] = test system: Soybean; assay: pre-emergence herbicide test; conditions: Glycine max, pre-emergence, read-out: % plant inhibition
Outline: as §2

[11] = test system: Cocklebur; assay: pre-emergence herbicide test; conditions: Xanthium strumarium, pre-emergence, read-out: % plant inhibition
Outline: as §2

[12] = test system: Rice; assay: pre-emergence herbicide test; conditions: Oryza sativa, read-out: % plant inhibition
Outline: as §2

[13] = test system: Velvetleaf; assay: pre-emergence herbicide test; conditions: Abutilon theophrasti, pre-emergence, read-out: % plant inhibition
Outline: as §2

[14] = test system: Corn; assay: pre-emergence herbicide test; conditions: Zea mays, pre-emergence, read-out: % plant inhibition
Outline: as §2

[15] = test system: Yellow Foxtail; assay: pre-emergence herbicide test; conditions: Setaria, read-out: % plant inhibition
Outline: as §2

[16] = test system: Morning Glory; assay: pre-emergence herbicide test; conditions: Ipomoea, pre-emergence, read-out: % plant inhibition
Outline: as §2

COc1cc(-c2nn(C)c(C(F)(F)F)c2C)c(F)cc1[N+](=O)[O-] [Compound 36] gave an inhibition at 7.95803 g/ha ([1]; 0.0071 lb/A) of 0%, an inhibition at 40.0143 g/ha ([1]; 0.0357 lb/A) of 0% and an inhibition at 200.072 g/ha ([1]; 0.1785 lb/A) of 45%. For the same molecule, the inhibition at 1000.92 g/ha ([1]; 0.893 lb/A) was 50%, the inhibition at 7.95803 g/ha ([2]; Table 4a) was 0% and the inhibition at 7.95803 g/ha ([2]; Table 5a) was 0%. The inhibition at 40.0143 g/ha ([2]; Table 4a) was 0%, the inhibition at 40.0143 g/ha ([2]; Table 5a) was 10% and the inhibition at 200.072 g/ha ([2]; Table 4a) was 0%. The inhibition at 200.072 g/ha ([2]; Table 5a) was 25%, the inhibition at 1000.92 g/ha ([2]; Table 4a) was 0% and the inhibition at 1000.92 g/ha ([2]; Table 5a) was 60%. For the same molecule, the inhibition at 7.95803 g/ha ([3]; 0.0071 lb/A) was 15%, the inhibition at 40.0143 g/ha ([3]; 0.0357 lb/A) was 25% and the inhibition at 200.072 g/ha ([3]; 0.1785 lb/A) was 35%. The inhibition at 1000.92 g/ha ([3]; 0.893 lb/A) was 45%, the inhibition at 7.95803 g/ha ([4]; 0.0071 lb/A) was 65% and the inhibition at 40.0143 g/ha ([4]; 0.0357 lb/A) was 70%. It also gave an inhibition at 200.072 g/ha ([4]; 0.1785 lb/A) of 75%, an inhibition at 1000.92 g/ha ([4]; 0.893 lb/A) of 100% and an inhibition at 7.95803 g/ha ([5]; 0.0071 lb/A) of 0%. It also gave an inhibition at 40.0143 g/ha ([5]; 0.0357 lb/A) of 25%, an inhibition at 200.072 g/ha ([5]; 0.1785 lb/A) of 30% and an inhibition at 1000.92 g/ha ([5]; 0.893 lb/A) of 40%. For the same molecule, the inhibition at 7.95803 g/ha ([6]; 0.0071 lb/A) was 0%, the inhibition at 40.0143 g/ha ([6]; 0.0357 lb/A) was 10% and the inhibition at 200.072 g/ha ([6]; 0.1785 lb/A) was 45%. For the same molecule, the inhibition at 1000.92 g/ha ([6]; 0.893 lb/A) was 70%, the inhibition at 7.95803 g/ha ([7]; 0.0071 lb/A) was 10% and the inhibition at 40.0143 g/ha ([7]; 0.0357 lb/A) was 5%. The inhibition at 200.072 g/ha ([7]; 0.1785 lb/A) was 20%, the inhibition at 1000.92 g/ha ([7]; 0.893 lb/A) was 25% and the inhibition at 7.95803 g/ha ([8]; 0.0071 lb/A) was 0%. The inhibition at 40.0143 g/ha ([8]; 0.0357 lb/A) was 20%, the inhibition at 200.072 g/ha ([8]; 0.1785 lb/A) was 90% and the inhibition at 1000.92 g/ha ([8]; 0.893 lb/A) was 100%. It also gave an inhibition at 7.95803 g/ha ([9]; 0.0071 lb/A) of 0%, an inhibition at 40.0143 g/ha ([9]; 0.0357 lb/A) of 0% and an inhibition at 200.072 g/ha ([9]; 0.1785 lb/A) of 0%. It also gave an inhibition at 1000.92 g/ha ([9]; 0.893 lb/A) of 0%, an inhibition at 7.95803 g/ha ([10]; 0.0071 lb/A) of 0% and an inhibition at 40.0143 g/ha ([10]; 0.0357 lb/A) of 0%. It also gave an inhibition at 200.072 g/ha ([10]; 0.1785 lb/A) of 0%, an inhibition at 1000.92 g/ha ([10]; 0.893 lb/A) of 10% and an inhibition at 7.95803 g/ha ([11]; 0.0071 lb/A) of 0%. For the same molecule, the inhibition at 40.0143 g/ha ([11]; 0.0357 lb/A) was 20%, the inhibition at 200.072 g/ha ([11]; 0.1785 lb/A) was 0% and the inhibition at 1000.92 g/ha ([11]; 0.893 lb/A) was 85%. The inhibition at 7.95803 g/ha ([12]; 0.0071 lb/A) was 0%, the inhibition at 40.0143 g/ha ([12]; 0.0357 lb/A) was 0% and the inhibition at 200.072 g/ha ([12]; 0.1785 lb/A) was 0%. For the same molecule, the inhibition at 1000.92 g/ha ([12]; 0.893 lb/A) was 65%, the inhibition at 7.95803 g/ha ([13]; 0.0071 lb/A) was 20% and the inhibition at 40.0143 g/ha ([13]; 0.0357 lb/A) was 20%. For the same molecule, the inhibition at 200.072 g/ha ([13]; 0.1785 lb/A) was 98%, the inhibition at 1000.92 g/ha ([13]; 0.893 lb/A) was 100% and the inhibition at 7.95803 g/ha ([14]; 0.0071 lb/A) was 0%. The inhibition at 40.0143 g/ha ([14]; 0.0357 lb/A) was 10%, the inhibition at 200.072 g/ha ([14]; 0.1785 lb/A) was 55% and the inhibition at 1000.92 g/ha ([14]; 0.893 lb/A) was 90%. The inhibition at 7.95803 g/ha ([15]; 0.0071 lb/A) was 0%, the inhibition at 40.0143 g/ha ([15]; 0.0357 lb/A) was 15% and the inhibition at 200.072 g/ha ([15]; 0.1785 lb/A) was 98%. For the same molecule, the inhibition at 1000.92 g/ha ([15]; 0.893 lb/A) was 100%, the inhibition at 7.95803 g/ha ([16]; 0.0071 lb/A) was 0% and the inhibition at 40.0143 g/ha ([16]; 0.0357 lb/A) was 10%. The inhibition at 200.072 g/ha ([16]; 0.1785 lb/A) was 60% and the inhibition at 1000.92 g/ha ([16]; 0.893 lb/A) was 90%.
